Measurements reported in patent publication US20050256103A1, “Indole derivative having piperidine ring” (Eisai Co., Ltd., priority 2004, published 2005).
Where two headings read alike, the source gives them in different places.

How the values were obtained:
serotonin 1A receptor = target: T1, serotonin 1A receptor (Mus musculus, UniProt Q64264); assay: Antagonistic effect on serotonin 1A receptor agonist (8-OH-DPAT)-induced hypothermia in mouse; type: in vivo; conditions: CD-1 (ICR) male mice; inhibition of hypothermia by 8-OH-DPAT 0.5 mg/kg sc; test substance 15 minutes before agonist
T1 construct: into the rectum of CD-1 (ICR) male mice (25-45 g); from tissue; host or cells: living CD-1 (ICR) male mice (in vivo)
T1 sequence (Q64264 1-421): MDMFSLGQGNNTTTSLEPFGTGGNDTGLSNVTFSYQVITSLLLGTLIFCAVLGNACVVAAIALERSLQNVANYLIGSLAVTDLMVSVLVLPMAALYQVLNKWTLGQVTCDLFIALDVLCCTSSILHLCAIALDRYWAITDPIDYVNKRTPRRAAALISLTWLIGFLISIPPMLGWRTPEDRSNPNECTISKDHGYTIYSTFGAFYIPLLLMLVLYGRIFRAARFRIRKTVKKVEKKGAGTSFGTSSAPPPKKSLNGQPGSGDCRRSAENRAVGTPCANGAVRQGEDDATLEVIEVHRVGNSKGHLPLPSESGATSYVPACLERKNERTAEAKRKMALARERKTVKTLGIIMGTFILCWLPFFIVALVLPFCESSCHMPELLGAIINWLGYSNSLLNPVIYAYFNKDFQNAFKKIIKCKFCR
Description: (1) A thermistor probe was inserted at a depth of approximately 2 cm into the rectum of CD-1 (ICR) male mice (25-45 g), so as to measure the body temperature thereof. Body temperature is decreased by subcutaneous administration of serotonin 1A receptor agonist (8-hydroxy-dipropylaminotetralin (8-OH-DPAT) 0;5 mg/kg. Since a serotonin 1A antagonist inhibits such action, the antagonistic effect of a test substance to a serotonin 1A receptor was evaluated using the inhibitory effect of the hypothermia as an index. The test results are shown in Table 2 indicated below. A test substance was administered 15 minutes before the administration of the serotonin 1A agonist. A serotonin 1A partial agonist alone decreases the body temperature, depending on the degree of the agonistic action thereof. In addition, it has a weak antagonistic effect on 8-OH-DPAT-induced hypothermia.

5-HT1A receptor = target: T2, 5-HT1A receptor (Sus scrofa, UniProt A0A4X1UTF5); assay: Affinity for serotonin 1A receptor: inhibition of [3H]MPPF binding in swine hippocampal membrane fraction; conditions: for IC50: [3H]MPPF 0.5 nM, swine hippocampal membrane, 37°C 30 min; for L/H ratio: low affinity IC50 divided by high affinity IC50, 1 or smaller = no intrinsic activity, 2 or greater = intrinsic activity
T2 construct: Swine hippocampus was homogenized in a 50 mM Tris-Hcl buffer; from tissue; host or cells: swine hippocampus, membrane fraction
T2 sequence (A0A4X1UTF5 1-422): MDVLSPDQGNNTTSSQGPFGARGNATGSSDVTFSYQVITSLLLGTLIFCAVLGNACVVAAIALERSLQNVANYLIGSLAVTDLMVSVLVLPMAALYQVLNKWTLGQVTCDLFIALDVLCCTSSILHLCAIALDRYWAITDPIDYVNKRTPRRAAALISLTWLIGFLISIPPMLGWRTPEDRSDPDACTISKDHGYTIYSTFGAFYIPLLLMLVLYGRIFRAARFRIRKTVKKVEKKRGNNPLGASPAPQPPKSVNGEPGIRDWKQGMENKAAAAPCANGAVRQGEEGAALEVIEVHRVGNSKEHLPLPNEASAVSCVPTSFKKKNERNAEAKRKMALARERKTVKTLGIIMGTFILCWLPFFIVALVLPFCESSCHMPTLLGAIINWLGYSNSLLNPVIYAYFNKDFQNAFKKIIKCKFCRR
Text: (1) The affinity of a test substance for a 5-HT1A receptor was examined by an inhibition experiment, in which the inhibitory effect of the test substance against the binding of [^3H]-4-(2′-methoxy)phenyl-1-(2′-(N-2″-pyridinyl)-p-fluorobenzamido)ethyl-piperazine (MPPF) that selectively binds to the 5-HT1A receptor in a swine hippocampal membrane fraction was examined. The 5-HT1A receptor that is a G-protein binding receptor becomes a G-protein binding state with addition of MgCl2. In contrast, it becomes a G-protein non-binding state with addition of guanylylimido diphosphate (Gpp(NH)p). […] Thus, both the affinity of a test substance to the receptor that was in a state of not binding to the G-protein and the affinity of the test substance to the receptor that was in a state of binding to the G-protein were obtained. Then, the obtained values were compared to each other, so as to estimate the level of the intrinsic activity of the test substance. Theoretically, when the value (L/H) obtained by dividing the affinity of a test substance to the receptor that is in a low affinity state (IC50 value) by the affinity of a test substance to the receptor that is in a high affinity state (IC50 value) is 1 or less, the intrinsic activity thereof is zero. The greater this value, the higher the intrinsic activity that can be obtained.
Swine hippocampus was homogenized in a 50 mM Tris-Hcl buffer (pH 7.4; hereinafter referred to as buffer A) that had been cooled on ice. The suspension was centrifuged at 40,000×g for 15 minutes. The obtained pellet was suspended in buffer solution A, and the thus obtained solution was then centrifuged at 40,000×g for 15 minutes. The same operation was repeated 2 or 3 times. The finally obtained pellet was suspended in a buffer solution A in an amount 10 times the wet weight of the swine hippocampus, so as to obtain a membrane fraction. The obtained membrane fraction was stored at −80° C. until use.
A mixture (0.5 ml) used for incubation comprised an appropriate amount of the membrane fraction, a test substance with a desired concentration, MgCl2 (final concentration: 10 mM) or Gpp(NH)p (final concentration: 1 mM), [^3H]MPPF (final concentration: 0.5 nM), dimethyl sulfoxide (final concentration: 1% (v/v)), and a 50 mM Tris-Hcl buffer (pH 7.4). The reaction was initiated with addition of the membrane fraction, and the mixture was incubated at 37° C. for 30 minutes. After completion of the incubation, the mixture was subjected to vacuum filtration with a glass filter, using Cell Harvester. The filter was washed with buffer solution A that had been cooled on ice. Thereafter, radioactivity binding to the receptor was measured with a liquid scintillation counter. Non-specific binding was defined as binding detected in the presence of 10 μM WAY-100,635.

[1] = receptor in high affinity (G-protein binding, MgCl2 10 mM) state, read-out: High affinity IC50
[2] = receptor in low affinity (G-protein non-binding, Gpp(NH)p 1 mM) state, read-out: Low affinity IC50

Row | ED50 (serotonin 1A receptor) | IC50 (5-HT1A receptor; [1]) | IC50 (5-HT1A receptor; [2]) | L/H ratio (5-HT1A receptor) | Compound
1 | 0.3 mg/kg, sc | 0.19 nM | 0.12 nM | 0.6 | CCN1C(=O)CCc2cc(OC)c(CCN3CCC(n4ccc5ccc(C(N)=O)cc54)CC3)cc21 [Compound 59, 1-{1-[2-(1-ethyl-6-methoxy-2-oxo-1,2,3,4-tetrahydroquinolin-7-yl)ethyl]piperidin-4-yl}-1H-indole-6-carboxamide]
2 | 0.41 mg/kg, sc | 0.4 nM | 0.47 nM | 1.2 | COc1ccc2ccccc2c1CCN1CCC(n2ccc3ccc(C(N)=O)cc32)CC1 [Compound 44, 1-{1-[2-(2-methoxynaphthalen-1-yl)ethyl]piperidin-4-yl}-1H-indole-6-carboxamide]
3 | 0.21 mg/kg, sc | 0.23 nM | 0.23 nM | 1 | COc1ccc2c(c1CCN1CCC(n3ccc4ccc(C(N)=O)cc43)CC1)OCCC2=O [Compound 47, 1-{1-[2-(7-methoxy-4-oxochroman-8-yl)ethyl]piperidin-4-yl}-1H-indole-6-carboxamide]
4 | 0.3 mg/kg, sc | 0.31 nM | 0.46 nM | 1.5 | COc1cc2c(cc1CCN1CCC(n3ccc4ccc(C(N)=O)cc43)CC1)N(C)CCC2 [Compound 53, 1-{1-[2-(6-methoxy-1-methyl-1,2,3,4-tetrahydroquinolin-7-yl)ethyl]piperidin-4-yl}-1H-indole-6-carboxamide]
5 | 0.84 mg/kg, sc | 0.18 nM | 0.13 nM | 0.7 | COc1ccc2c(c1CCN1CCC(n3ccc4ccc(C(N)=O)cc43)CC1)CCCN2C(C)=O [Compound 54, 1-{1-[2-(1-acetyl-6-methoxy-1,2,3,4-tetrahydroquinolin-5-yl)ethyl]piperidin-4-yl}-1H-indole-6-carboxamide]
6 | 0.3 mg/kg, sc | 0.17 nM | 0.13 nM | 0.8 | COc1cc2c(cc1CCN1CCC(n3ccc4ccc(C(N)=O)cc43)CC1)C(=O)N(C)CCO2 [Compound 9, 1-{1-[2-(8-methoxy-4-methyl-5-oxo-2,3,4,5-tetrahydrobenzo[f][1,4]oxazepin-7-yl)ethyl]piperidin-4-yl}-1H-indole-6-carboxamide]
7 | 0.25 mg/kg, sc | 0.16 nM | 0.2 nM | 1.3 | COc1cc2c(cc1CCN1CCC(n3ccc4ccc(C(N)=O)cc43)CC1)C(=O)CC2 [Compound 26, 1-{1-[2-(6-methoxy-3-oxoindan-5-yl)ethyl]piperidin-4-yl}-1H-indole-6-carboxamide]
8 | 0.53 mg/kg, sc | 0.33 nM | 0.39 nM | 1.2 | CNC(=O)c1ccc2ccn(C3CCN(CCc4cc5c(cc4OC)CCC(=O)N5C)CC3)c2c1 [Compound 58, 1-{1-[2-(6-methoxy-1-methyl-2-oxo-1,2,3,4-tetrahydroquinolin-7-yl)ethyl]piperidin-4-yl}-N-methyl-1H-indole-6-carboxamide]
9 | 0.5 mg/kg, sc | 0.22 nM | 0.2 nM | 0.9 | COc1cc2c(cc1CCN1CCC(n3ccc4ccc(C(N)=O)cc43)CC1)N(C(C)=O)CCC2 [Compound 52, 1-{1-[2-(1-acetyl-6-methoxy-1,2,3,4-tetrahydroquinolin-7-yl)ethyl]piperidin-4-yl}-1H-indole-6-carboxamide]
10 | 0.3 mg/kg, sc | 0.24 nM | 0.33 nM | 1.4 | COc1ccc2c(c1CCN1CCC(n3ccc4ccc(C(N)=O)cc43)CC1)OCCC2O (stereo not drawn) [Compound 46, 1-{1-[2-(4-hydroxy-7-methoxychroman-8-yl)ethyl]piperidin-4-yl}-1H-indole-6-carboxamide]
11 | 0.37 mg/kg, sc | 0.26 nM | 0.2 nM | 0.8 | COc1ccc2c(c1CCN1CCC(n3ccc4ccc(C(N)=O)cc43)CC1)CCN(C)C2=O [Compound 34, 1-(1-(2-(6-methoxy-2-methyl-1-oxo-1,2,3,4-tetrahydroisoquinolin-5-yl)ethyl)piperidin-4-yl)-1H-indole-6-carboxamide]
12 | 0.04 mg/kg, sc | 0.26 nM | 0.25 nM | 1 | COc1ccc2c(c1CCN1CCC(n3ccc4ccc(C(N)=O)cc43)CC1)OCCO2 [Compound 32, 1-{1-[2-(6-methoxy-2,3-dihydrobenz[1,4]dioxin-5-yl)ethyl]piperidin-4-yl}-1H-indole-6-carboxamide]
13 | 0.28 mg/kg, sc | 0.22 nM | 0.27 nM | 1.2 | COc1ccc2c(c1CCN1CCC(n3ccc4ccc(C(N)=O)cc43)CC1)CCC2O (stereo not drawn) [Compound 49, 1-{1-[2-(1-hydroxy-5-methoxyindan-4-yl)ethyl]piperidin-4-yl}-1H-indole-6-carboxamide]

Row | Compound | ED50 (serotonin 1A receptor) | IC50 (5-HT1A receptor; [1]) | IC50 (5-HT1A receptor; [2]) | L/H ratio (5-HT1A receptor)
14 | CCn1c(=O)oc2cc(OC)c(CCN3CCC(n4ccc5ccc(C(N)=O)cc54)CC3)cc21 [Compound 60, 1-{1-[2-(3-ethyl-6-methoxy-2-oxo-2,3-dihydrobenzoxazol-5-yl)ethyl]piperidin-4-yl}-1H-indole-6-carboxamide] | 0.52 mg/kg, sc | 0.28 nM | 0.24 nM | 0.9
15 | CNC(=O)c1ccc2ccn(C3CCN(CCc4c(OC)ccc5c4OC(C)(C)CC5O)CC3)c2c1 (stereo not drawn) [Compound 48, 1-{1-[2-(4-hydroxy-7-methoxy-2,2-dimethylchroman-8-yl)ethyl]piperidin-4-yl}-N-methyl-1H-indole-6-carboxamide] | 0.06 mg/kg, sc | 1.2 nM | 1.1 nM | 0.9
